{"source": "patent US12522596B2", "about": "“Compounds as GLP-1R agonists” (Terns Pharmaceuticals, Inc., priority 2021, dated 2026)", "assay": "Pharmacokinetics in hGLP-1R mice after oral dosing", "type": "in vivo, male C57BL/6J hGLP-1R mouse", "settings": "male, C57BL/6J hGLP-1R, mouse, plasma, po; for concentration at 120 min: hGLP-1R mouse plasma collected at 120 min (IPGTT cohort); for MRT inf: read-out: MRT0-inf; for MRT last: read-out: MRT0-last; for AUC0-inf: read-out: AUC0-inf", "protocol": "IPGTT (120 min)—PK bleeding: 40 μL blood samples (all treatment groups) were collected from mice under the jaw at IPGTT-120 min after blood glucose measurement into pre-chilled EDTA-2K tubes. Blood samples were processed for plasma by centrifugation at 4° C., 3200×g for 10 min. 15 μL plasma was stored at −80° C. for PK analysis. From 4 mice in Group 7 of the PD cohort, whole brain was collected after blood is harvested at 120 min post dose, rinsed with saline and patted dry and placed into a pre-weighed tube and stored at −80° C. collected for PK analysis.\nPK bleeding group design is described in Table 9.\nPK bleeding: 30 μL blood was collected at 0.25, 0.5, 1, 2, 4, and 8 h. Blood samples were processed for plasma by centrifugation at 4° C., 3200×g for 10 min. 12 μL plasma was collected at −80° C. for further analysis. From 3 mice in Group 7 of the PK cohort, whole brain was collected after blood is harvested at 8 hr post dose, rinsed with saline and patted dry and placed into a pre-weighed tube and stored at −80° C. collected for PK analysis.\nFor plasma: An aliquot of 3 μL sample was protein precipitated with 60 μL internal standard (100 ng/mL Labetalol & 100 ng/ml Dexamethasone & 100 ng/ml Tolbutamide & 100 ng/mL Verapamil & 100 ng/ml Glyburide & 100 ng/ml Celecoxib in ACN) and then the mixture was vortex-mixed for 10 min at 800 rpm and centrifuged for 15 min at 3220×g, 4° C.\nThe linear/log trapezoidal rule was applied in obtaining the PK parameters. Individual plasma concentration values that were below the lower limit of quantitation (LOQ) were excluded from the PK parameter calculation. The nominal dose levels and nominal sampling times were used in the calculation of all pharmacokinetic parameters.", "key": {"[1]": {"settings": "0.3 mg/kg, hGLP-1R mouse plasma, PO 0.3 mg/kg, read-out: Mean Concentration"}, "[2]": {"settings": "0.3 mg/kg, hGLP-1R mouse plasma, PO 0.3 mg/kg, individual animals, read-out: Concentration"}, "[3]": {"settings": "0.3 mg/kg, hGLP-1R mouse plasma, PO 0.3 mg/kg, individual mice"}, "[4]": {"settings": "0.3 mg/kg, hGLP-1R mouse plasma, PO 0.3 mg/kg, mean"}, "[5]": {"settings": "1 mg/kg, hGLP-1R mouse plasma, PO 1 mg/kg, individual animals, read-out: Concentration"}, "[6]": {"settings": "1 mg/kg, hGLP-1R mouse plasma, PO 1 mg/kg, read-out: Mean Concentration"}, "[7]": {"settings": "1 mg/kg, hGLP-1R mouse plasma, PO 1 mg/kg, individual mice"}, "[8]": {"settings": "1 mg/kg, hGLP-1R mouse plasma, PO 1 mg/kg, mean"}}, "note": "Read-outs that look alike come from different tables or passages of the source."}
{"smiles": "N#Cc1ccc(COc2cccc(C3CCN(Cc4nc5ccc(C(=O)O)cc5n4C[C@@H]4CCO4)CC3)n2)c(F)c1", "note": "[Reference Compound A, reference compound]", "values": [{"measurement": "concentration at 120 min", "setting": "0.3 mg/kg, PO 0.3 mg/kg, read-out: Mean Concentration", "value": 7.16, "unit": "ng/mL"}, {"measurement": "concentration at 0.25 h", "setting": "[1]", "value": 24.9, "unit": "ng/mL"}, {"measurement": "concentration at 0.5 h", "setting": "[2]", "value": 19.6, "unit": "ng/mL"}, {"measurement": "concentration at 0.5 h", "setting": "[1]", "value": 17.3, "unit": "ng/mL"}, {"measurement": "concentration at 1 h", "setting": "[1]", "value": 16, "unit": "ng/mL"}, {"measurement": "concentration at 2 h", "setting": "0.3 mg/kg, hGLP-1R mouse plasma, PO 0.3 mg/kg", "value": 3.37, "unit": "ng/mL"}, {"measurement": "concentration at 4 h", "setting": "[2]", "value": "< 1", "unit": "ng/mL"}, {"measurement": "MRT inf", "setting": "[3]", "value": 56.6, "unit": "min"}, {"measurement": "MRT last", "setting": "[3]", "value": 48.2, "unit": "min"}, {"measurement": "half-life", "setting": "0.3 mg/kg, hGLP-1R mouse plasma, PO 0.3 mg/kg, individual mice, read-out: T1/2 (converted)", "value": 28.9, "unit": "min"}, {"measurement": "Tmax", "setting": "0.3 mg/kg, hGLP-1R mouse plasma, PO 0.3 mg/kg, individual mice, read-out: Tmax", "value": 30, "unit": "min"}, {"measurement": "AUC0-inf", "setting": "[4]", "value": 27.6, "unit": "ng·h/mL"}, {"measurement": "AUC(0-t)", "setting": "0.3 mg/kg, hGLP-1R mouse plasma, PO 0.3 mg/kg, mean, read-out: AUC0-last", "value": 24.5, "unit": "ng·h/mL"}, {"measurement": "Cmax", "setting": "0.3 mg/kg, hGLP-1R mouse plasma, PO 0.3 mg/kg, mean, read-out: Cmax", "value": 27, "unit": "ng/mL"}, {"measurement": "MRT inf", "setting": "[4]", "value": 62.4, "unit": "min"}, {"measurement": "MRT last", "setting": "[4]", "value": 49.2, "unit": "min"}, {"measurement": "half-life", "setting": "0.3 mg/kg, hGLP-1R mouse plasma, PO 0.3 mg/kg, mean, read-out: T1/2 (converted)", "value": 36.2, "unit": "min"}, {"measurement": "Tmax", "setting": "0.3 mg/kg, hGLP-1R mouse plasma, PO 0.3 mg/kg, mean, read-out: Tmax", "value": 25, "unit": "min"}, {"measurement": "AUC(0-t)", "setting": "1 mg/kg, hGLP-1R mice, total, PO 1.0 mg/kg, read-out: AUClast Mean", "value": 85.5, "unit": "ng·h/mL"}, {"measurement": "Cmax", "setting": "1 mg/kg, hGLP-1R mice, total, PO 1.0 mg/kg, read-out: Cmax Mean", "value": 49.7, "unit": "ng/mL"}, {"measurement": "Tmax", "setting": "1 mg/kg, hGLP-1R mice, total, PO 1.0 mg/kg, read-out: Tmax Median", "value": 30, "unit": "min"}, {"measurement": "concentration at 120 min", "setting": "1 mg/kg, PO 1 mg/kg, read-out: Mean Concentration", "value": 21.4, "unit": "ng/mL"}, {"measurement": "concentration at 0.25 h", "setting": "[5]", "value": 43.5, "unit": "ng/mL"}, {"measurement": "concentration at 0.25 h", "setting": "[6]", "value": 35.7, "unit": "ng/mL"}, {"measurement": "concentration at 0.5 h", "setting": "[5]", "value": 62.8, "unit": "ng/mL"}, {"measurement": "concentration at 0.5 h", "setting": "[6]", "value": 48.1, "unit": "ng/mL"}, {"measurement": "concentration at 1 h", "setting": "[6]", "value": 39.5, "unit": "ng/mL"}, {"measurement": "concentration at 2 h", "setting": "1 mg/kg, hGLP-1R mouse plasma, PO 1 mg/kg", "value": 14.5, "unit": "ng/mL"}, {"measurement": "concentration at 4 h", "setting": "[5]", "value": 3.59, "unit": "ng/mL"}, {"measurement": "concentration at 4 h", "setting": "[6]", "value": 3.4, "unit": "ng/mL"}, {"measurement": "concentration at 8 h", "setting": "1 mg/kg, hGLP-1R mouse plasma, PO 1 mg/kg, 8 h, read-out: Mean Concentration", "value": 2.42, "unit": "ng/mL"}, {"measurement": "AUC0-inf", "setting": "[7]", "value": 105, "unit": "ng·h/mL"}, {"measurement": "AUC(0-t)", "setting": "1 mg/kg, hGLP-1R mouse plasma, PO 1 mg/kg, individual mice, read-out: AUC0-last", "value": 101, "unit": "ng·h/mL"}, {"measurement": "Cmax", "setting": "1 mg/kg, hGLP-1R mouse plasma, PO 1 mg/kg, individual mice, read-out: Cmax", "value": 62.8, "unit": "ng/mL"}, {"measurement": "MRT last", "setting": "[7]", "value": 78, "unit": "min"}, {"measurement": "Tmax", "setting": "1 mg/kg, hGLP-1R mouse plasma, PO 1 mg/kg, individual mice, read-out: Tmax", "value": 30, "unit": "min"}, {"measurement": "AUC0-inf", "setting": "[8]", "value": 93.8, "unit": "ng·h/mL"}, {"measurement": "AUC(0-t)", "setting": "1 mg/kg, hGLP-1R mouse plasma, PO 1 mg/kg, mean, read-out: AUC0-last", "value": 85.5, "unit": "ng·h/mL"}, {"measurement": "Cmax", "setting": "1 mg/kg, hGLP-1R mouse plasma, PO 1 mg/kg, mean, read-out: Cmax", "value": 49.7, "unit": "ng/mL"}, {"measurement": "MRT inf", "setting": "[8]", "value": 161, "unit": "min"}, {"measurement": "MRT last", "setting": "[8]", "value": 109, "unit": "min"}, {"measurement": "half-life", "setting": "1 mg/kg, hGLP-1R mouse plasma, PO 1 mg/kg, mean, read-out: T1/2 (converted)", "value": 119, "unit": "min"}, {"measurement": "Tmax", "setting": "1 mg/kg, hGLP-1R mouse plasma, PO 1 mg/kg, mean, read-out: Tmax", "value": 40, "unit": "min"}, {"measurement": "Tmax", "setting": "3 mg/kg, hGLP-1R mice, oral, across the doses tested (0.3, 1 and, for Compound 2, 3 mg/kg), read-out: median Tmax", "value": 30, "unit": "min"}, {"measurement": "half-life", "setting": "hGLP-1R male mice, oral, across doses, read-out: terminal T1/2", "value": "< 120", "unit": "min"}]}
